Data from article PMC10779433, “Bidirectional Allosteric Coupling between PIP2 Binding and the Pore of the Oncochannel TRPV6” (International Journal of Molecular Sciences, 2024).
Residues, ends and D or L forms follow the SMILES beside them. *: point of attachment. Palmitoyl = CCCCCCCCCCCCCCCC(=O)*

Legend:
[1] = tested on: TRPV6 R492Q; assay: Whole-cell patch clamp, TRPV6 R492Q; type: cell-based, human; conditions: HEK293 cells, p < 0.05
Description: N-terminally TagRFP-labeled human TRPV6 (725 aa) was kindly provided by R. Bhardwaj and M. Hediger (University of Bern, Bern, Switzerland). This variant is translated from the first ATG codon and thus deviates from the non-ATG-initiated protein which is expressed in vivo (accession number NM_018646.6) by lacking 40 amino acids of the very N-terminus. For N-terminal labeling with EYFP, TRPV6 was cloned into pEYFP-C1 (Clontech) via EcoRI and SacII restriction sites. Mutations (F468A, R470A, F472A, K484A/Q, G488R, R492A/Q, I575A, G579A, D580A/K, H582A, W583A/F, H587A, R589A, W593A, R632A/Q, R470A, W583F) were introduced using the QuickChange XL site-directed mutagenesis kit (Stratagene, San Diego, CA, USA) and Pfu DNA Polymerase (Promega, Madison, WI, USA). pTagRFP-hTRPV6 I575A was kindly provided by the lab of M. Hediger (University of Bern, Bern, Switzerland). Forward and reverse primers for site-directed mutagenesis were synthesized by Eurofins genomics GmbH (Wien, Vienna, Austria). Intactness of the constructs in terms of sequence was confirmed by sequencing (Microsynth Austria GmbH, Wien, Vienna, Austria; Eurofins genomics GmbH, Wien, Vienna, Austria). In the present experiments, Tag-RFP-labeled constructs were implemented for NFAT screens, patch clamp measurements, and Fura-2-based Ca^2+ imaging, while for R.Geco1.2 measurements, TRPV6 WT and mutants were used which carried an EYFP label at the N-terminus (pEYFP-C1 vector) to avoid spectral overlap. R.Geco1.2 was purchased from Addgene (No. 45494), and mCherry-CRY2-5ptase OCRL was established in the lab of P. De Camilli and was derived from Addgene (No. 66836), as was CIBN-CAAX (No. 79574). Plasmids encoding for mCerulean3-CRY2-5′ ptase OCRL, YFP-CIBN-CAAX, and the mCherry-tagged PH domain were provided by K. Groschner (Medical University of Graz, Graz, Austria). […]
Electrophysiological experiments were performed at 20 °C to 24 °C in whole-cell recording configurations of the patch clamp technique. […] The liquid junction potential was determined as 12 mV; the voltages were not adjusted. […]

[2] = target: T1, TRPV6 WT (Homo sapiens, UniProt Q9H1D0); assay: NFAT localization, TRPV6 WT; type: cell-based; conditions: HEK293 cells
T1 construct: expressed in transfected cells; host or cells: HEK293 cells, transient transfection
T1 sequence (Q9H1D0 41-765 limits assumed): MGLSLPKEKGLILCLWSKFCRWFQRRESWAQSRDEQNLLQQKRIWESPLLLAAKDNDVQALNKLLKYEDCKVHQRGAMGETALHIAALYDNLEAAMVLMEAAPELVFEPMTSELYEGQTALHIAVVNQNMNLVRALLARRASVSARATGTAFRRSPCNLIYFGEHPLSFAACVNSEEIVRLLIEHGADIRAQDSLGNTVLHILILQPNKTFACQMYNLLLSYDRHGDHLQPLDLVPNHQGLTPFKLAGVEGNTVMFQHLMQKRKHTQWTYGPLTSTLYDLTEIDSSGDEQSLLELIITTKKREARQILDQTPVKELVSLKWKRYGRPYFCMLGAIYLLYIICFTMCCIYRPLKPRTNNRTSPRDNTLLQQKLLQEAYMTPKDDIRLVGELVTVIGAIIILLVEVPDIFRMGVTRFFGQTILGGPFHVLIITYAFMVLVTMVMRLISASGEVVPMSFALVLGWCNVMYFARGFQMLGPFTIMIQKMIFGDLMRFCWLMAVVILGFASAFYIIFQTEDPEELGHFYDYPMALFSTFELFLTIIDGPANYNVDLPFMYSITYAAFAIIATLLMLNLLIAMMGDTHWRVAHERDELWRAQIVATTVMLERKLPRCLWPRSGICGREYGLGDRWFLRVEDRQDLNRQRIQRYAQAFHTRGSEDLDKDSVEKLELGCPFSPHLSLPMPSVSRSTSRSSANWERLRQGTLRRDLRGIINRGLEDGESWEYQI
Description: N-terminally TagRFP-labeled human TRPV6 (725 aa) was kindly provided by R. Bhardwaj and M. Hediger (University of Bern, Bern, Switzerland). This variant is translated from the first ATG codon and thus deviates from the non-ATG-initiated protein which is expressed in vivo (accession number NM_018646.6) by lacking 40 amino acids of the very N-terminus. For N-terminal labeling with EYFP, TRPV6 was cloned into pEYFP-C1 (Clontech) via EcoRI and SacII restriction sites. Mutations (F468A, R470A, F472A, K484A/Q, G488R, R492A/Q, I575A, G579A, D580A/K, H582A, W583A/F, H587A, R589A, W593A, R632A/Q, R470A, W583F) were introduced using the QuickChange XL site-directed mutagenesis kit (Stratagene, San Diego, CA, USA) and Pfu DNA Polymerase (Promega, Madison, WI, USA). pTagRFP-hTRPV6 I575A was kindly provided by the lab of M. Hediger (University of Bern, Bern, Switzerland). Forward and reverse primers for site-directed mutagenesis were synthesized by Eurofins genomics GmbH (Wien, Vienna, Austria). Intactness of the constructs in terms of sequence was confirmed by sequencing (Microsynth Austria GmbH, Wien, Vienna, Austria; Eurofins genomics GmbH, Wien, Vienna, Austria). In the present experiments, Tag-RFP-labeled constructs were implemented for NFAT screens, patch clamp measurements, and Fura-2-based Ca^2+ imaging, while for R.Geco1.2 measurements, TRPV6 WT and mutants were used which carried an EYFP label at the N-terminus (pEYFP-C1 vector) to avoid spectral overlap. R.Geco1.2 was purchased from Addgene (No. 45494), and mCherry-CRY2-5ptase OCRL was established in the lab of P. De Camilli and was derived from Addgene (No. 66836), as was CIBN-CAAX (No. 79574). Plasmids encoding for mCerulean3-CRY2-5′ ptase OCRL, YFP-CIBN-CAAX, and the mCherry-tagged PH domain were provided by K. Groschner (Medical University of Graz, Graz, Austria). […] CFP-NFAT (NFATc1, equivalent to NFAT2) was kindly provided by R. Kehlenbach (Scripps Research Institute, La Jolla, CA, USA).
After incubation, cover slips were carefully rinsed with phenol red-free DMEM supplemented with the compound and dosage corresponding to the previous incubation, which was then also present during imaging. In any case, an untreated control was included as well, using phenol red-free DMEM as imaging solution. Subcellular NFAT localization of TRPV6 expressing cells was again monitored on an Axiovert 135 inverted microscope (Zeiss, Oberkochen, Germany), as described in more detail before. Excitation of CFP relied on the 425 nm LED in combination with a CHROMA 69,008× ET ECFP/EYFP/mCherry 25mm Dia Mounted filter. Images were analyzed using Matlab2018a, differentiating between three cell populations based on the ratio of CFP emission intensity originating from the nucleus and the cytosol, similar to Schober et al. (2019).

[3] = 5 μM cis-22a, three or four hours

NFAT distribution pattern ([2]; 0.1 μM cis-22a, 2 h, 37 °C, vs DMSO about 90% nuclear, about 10% homogeneous) | nuclear NFAT localization (% of cells) ([2]; 5 μM cis-22a, 2 h, vs DMSO control 90% nuclear) | NFAT cytosolic localization [2, 3] | Structure (SMILES) | current inhibition vs TRPV6 WT ([1]; 0.1 μM cis-22a) | current inhibition vs TRPV6 WT ([1]; 10 μM cis-22a, after 0.1 μM) | NFAT nuclear localization [2, 3] | NFAT homogeneous vs cytosolic localization ([2]; 10 μM cis-22a, 2 h) | NFAT cytosolic localization, dose dependence ([2]; 0.1, 1, 5, 10 μM cis-22a, 2 h) | NFAT nuclear localization, dose dependence ([2]; 1, 5, or 10 μM cis-22a, 2 h, 37 °C) | sensitivity to peptide-based PIP2 sequestration vs WT ([1]; 10 μM pal-PIP2 peptide, Figure 4D) | NFAT localization patterns ([2]; 10 μM pal-PIP2 peptide, 15–20 min or 2 h)
essentially preserved | 22% | roughly 40% | Cc1cccc(C2CCC(N3CCN(c4cccnc4)CC3)CC2)c1.O=C(O)C(F)(F)F (stereo not drawn) [cis-22a] | significantly reduced | significantly reduced inhibition | only a small proportion of cells maintained nuclear localization | the likelihood for homogeneous and cytosolic localization equalized | only observed at the two highest concentrations tested | continuously decreased the proportion of cells showing nuclear NFAT localization but favored a homogeneous distribution |  | 
 |  |  | CCCCCCCCCCCCCCCC(=O)N[C@@H](Cc1c[nH]cn1)C(=O)N[C@@H](CCCNC(=N)N)C(=O)N[C@@H](CCC(N)=O)C(=O)N[C@@H](CCCCN)C(=O)N[C@@H](Cc1c[nH]cn1)C(=O)N[C@@H](Cc1ccccc1)C(=O)N[C@@H](CCC(=O)O)C(=O)N[C@@H](CCCCN)C(=O)N[C@@H](CCCNC(=N)N)C(=O)N[C@@H](CCCNC(=N)N)C(N)=O [pal-PIP2 peptide] (Palmitoyl-HRQKHFEKRR-NH2) |  |  |  |  |  |  | significantly reduced sensitivity | unable to change localization patterns
